Results: patent US20170218389A1, “METHODS AND COMPOSITIONS FOR STOMATA REGULATION, PLANT IMMUNITY, AND DROUGHT TOLERANCE” (priority 2016, published 2017)

B1: Jasmonate-Zim-Domain Protein 9 (JAZ9, At1g70700), full-length (other, Arabidopsis, UniProt Q8W4J8 1-267, looked up)
chain: MERDFLGLSDKQYLSNNVKHEVNDDAVEERGLSTKAAREWGKSKVFATSSFMPSSDFQEAKAFPGAYQWGSVSAANVFRRCQFGGAFQNATPLLLGGSVPLPTHPSLVPRVASSGSSPQLTIFYGGTISVFNDISPDKAQAIMLCAGNGLKGETGDSKPVREAERMYGKQIHNTAATSSSSATHTDNFSRCRDTPVAATNAMSMIESFNAAPRNMIPSVPQARKASLARFLEKRKERLMSAMPYKKMLLDLSTGESSGMNYSSTSPT
notes: GAL4 domain fusion in yeast two-hybrid, EYFP-half fusion in BiFC/FAST; the construct of the JAZ9 protein added to the GTPase assays is not described

How the values were obtained:
AtNHR1A [1] = conditions: 4 hrs of 100 μM ABA, cited from earlier work
[2] = test system: stomata of Arabidopsis epidermal peels; test: Stomatal closure / aperture in epidermal peels of NHR1A lines; assay type: cell-based; conditions: ABA 50 μM, flg22 20 μM
Procedure: FIG. 6A, FIG. 6B and FIG. 6C show ABA, PAMPs, host and nonhost bacterial pathogens induce AtNHR1A, AtNHR1B, and stomatal closure in an AtNHR1A-dependent manner. Histograms are depicted of AtNHR1A (FIG. 6A) and AtNHR1B (FIG. 6B) gene expression in Arabidopsis wild-type (Col-0) plants individually syringe-infiltrated with ABA (10 μM), Flg22 (20 μM), or LPS (100 ng), or flood-inoculated with the pathogens P. syringae pv. maculicola (Psm) and P. syringae pv. tabaci (Pst) at 1×10^4 cfu/mL. Bars indicate relative gene expression in comparison with the housekeeping gene UBQ5 and in relation to the 0 hr time-point. Different letters above bars indicate a statistically significant difference within a treatment (Student's t-test; p-value=0.05). Error bars represent the standard deviation of three biological replicates (three technical replicates for each biological replicate). Histograms are depicted quantifying stomatal aperture size from epidermal peels incubated with ABA (10 μM or 50 μM), Flg22 (20 μM), LPS (100 ng) and the nonhost pathogen Pst (1×10^6 cfu/mL), where aperture size was measured after 30 min for ABA, 1 hr for flg22 and 3 hrs for Pst (FIG. 6C). […]

AtNHR1B [3] = test: qRT-PCR of AtNHR1B expression in treated wild-type Col-0 plants; assay type: in vivo, Arabidopsis; conditions: Col-0, 12 hpt; ABA 10 μM, Flg22 20 μM
Procedure: (§1) Total RNA was purified from Arabidopsis leaves infiltrated with water (mock control), nonhost pathogen P. syringae pv. tabaci (Psta), or host pathogen P. syringae pv. maculicola (Psm). Total RNA was extracted using TRIzol (Invitrogen, NT) and 2 treated or inoculated leaves were pooled to represent one biological replicate. Total RNA was treated with DNase I (Invitrogen, NY), and 1 μg RNA was used to generate cDNA using Superscript III reverse transcriptase (Invitrogen, NY) and oligo d(T)15-20 primers. The cDNA (1:20) was then used for qRT-PCR using Power SYBR Green PCR master mix (Applied Biosystems, Foster City, Calif., USA) with an ABI Prism 7900 HT sequence detection system (Applied Biosystems). Primers specific for AtUBQ5 were used to normalize small differences in template amounts. Average Cycle Threshold (CT) values calculated using Sequence Detection Systems (version 2.2.2; Applied Biosystems) from duplicate samples were used to determine the fold expression relative to controls.
(§2) The gene expression patterns of AtNHR1A and AtNHR1B were determined by quantitative RT-PCR (qRT-PCR) after treating wild-type Col-0 plants with ABA, PAMPs (Flg22 and LPS), host (P. syringae pv. maculicola) and nonhost (P. syringae pv. tabaci) bacterial pathogens. […]

AtNHR1B [4] = conditions: both mesophyll cells and guard cells, 4 hrs of 100 μM ABA; cited from earlier work
[5] = test system: stomata of Arabidopsis epidermal peels; test: Stomatal aperture in epidermal peels of Col-0 and AtGCN4 overexpressor lines; assay type: cell-based; conditions: both wild-type Col-0 and AtGCN4 overexpressor lines, after ABA treatment
Procedure: A representative histogram is depicted of stomatal aperture in Arabidopsis plant epidermal peels from wild-type Col-0 and GCN4-overexpressing (AtGCN4-OE6 and AtGCN4-OE16) lines measured 4 hours after treatment with MES buffer, COR, ABA, or COR+ABA.
Upon detection of PAMPs, stomata rapidly closes to prevent entry of the pathogen into apoplast (Melotto et al., 2006; Lee et al., 2013). […] Epidermal peels of AtGCN4 overexpressing lines were used to investigate whether stomata reopen after treatment with MES buffer (stomata opening buffer; control) or the host pathogen P. syringae pv. tomato DC3000. In wild-type Col-0, stomata reopened 3 hpi, while in the AtGCN4 overexpressor lines (AtGCN4-OE6 and AtGCN4-OE16), stomata remained closed even 4 hpi with P. syringae pv. tomato DC3000. Stomatal aperture was measured after ABA and coronatine treatments in order to investigate stomatal function in AtGCN4 overexpressor lines. ABA treatment induces stomatal closure in plants. After ABA treatment, the stomatal aperture size was reduced due to closing in both wild-type Col-0 and the AtGCN4 overexpressor lines.

AtNHR1A [6] = test: qRT-PCR of AtNHR1A expression in treated wild-type Col-0 plants; assay type: in vivo, Arabidopsis; conditions: Col-0, syringe-infiltrated ABA 10 μM, 6 hpt, relative to 0 hr
Procedure: as §1, §2

[7] = molecular target: T1, COI1 (Coronatine Insensitive 1) (Arabidopsis, UniProt O04197 1-592, limits assumed); test: FAST (fast agro-mediated seedling transformation) assay in Arabidopsis Col-0 and nhr1a seedlings
T1 construct: Expressed in Arabidopsis seedlings in the FAST assay; construct not described
T1 sequence (looked up): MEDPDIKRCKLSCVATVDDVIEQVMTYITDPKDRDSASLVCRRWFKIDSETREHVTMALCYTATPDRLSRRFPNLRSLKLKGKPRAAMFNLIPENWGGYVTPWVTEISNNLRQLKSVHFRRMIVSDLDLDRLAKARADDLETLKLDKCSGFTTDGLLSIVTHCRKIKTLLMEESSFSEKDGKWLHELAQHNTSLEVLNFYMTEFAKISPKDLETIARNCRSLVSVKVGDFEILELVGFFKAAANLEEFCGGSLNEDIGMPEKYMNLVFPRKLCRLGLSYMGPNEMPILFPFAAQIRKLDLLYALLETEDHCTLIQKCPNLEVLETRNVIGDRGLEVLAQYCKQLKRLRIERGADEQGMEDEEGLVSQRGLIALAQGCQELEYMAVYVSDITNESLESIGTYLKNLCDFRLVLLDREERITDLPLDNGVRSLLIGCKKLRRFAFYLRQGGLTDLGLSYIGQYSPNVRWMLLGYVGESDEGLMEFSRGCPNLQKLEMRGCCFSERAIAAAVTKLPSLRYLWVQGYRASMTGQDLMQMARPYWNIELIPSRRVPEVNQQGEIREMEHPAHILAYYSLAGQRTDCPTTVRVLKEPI
Source text: Several JAZ proteins, such as JAZ1, JAZ2, JAZ3, JAZ6, JAZ9 and JAZ10, have been known to directly interact with COI1 in Arabidopsis (Chini et al., 2009; Melotto et al., 2008; Thines et al., 2007; Yan et al., 2009; Zhou et al., 2013). As shown above, NHR1A directly interacts with JAZ1, JAZ3, JAZ4, JAZ5, JAZ9 and JAZ12. Without being limited by theory, the present inventors hypothesize that the function of JAZ9 can be modified by binding NHR1A, and this may affect COI1-mediated signaling for stomatal closure. The fast agro-mediated seedling transformation (FAST) assay was used in Col-0 and nhr1a to investigate whether NHR1A was required for JAZ9-COI1 interaction.

AtNHR1A [8] = test: GTPase activity of AtNHR1A (GTP hydrolysis, phosphate release); assay type: biochemical, Arabidopsis
Procedure: FIG. 12A, FIG. 12B and FIG. 12C show NHR1A has GTPase activity and interacts with JAZ9 in Arabidopsis. A representative histogram is depicted showing that nhr1a is less sensitive to JA than Col-0, where roots were measured 7 days after seeds of different Arabidopsis lines were grown in MS medium plates with or without 30 μM of MeJA (FIG. 12A). Data represents three independent experiments with at least 10 seedlings per line. Bars represent the mean±SD. Asterisks indicate statistical significance (Student's t-test; p-value <0.05). A representative scatter-plot and histogram are depicted showing that the GTPase activity of NHR1A is reduced by JAZ9 as measured by the rate of phosphate (Pi) release when NHR1A protein (1 μM) was pre-loaded with GTP (1 mM) and incubated without (FIG. 12B) or with 0.25-1 μM of JAZ9 (FIG. 12C). Data represents three independent experiments. Bars represent the mean±SE.
To further examine the role of AtNHR1A, GTPase activity of AtNHR1A was assessed using purified protein in a fluorescence-based assay (Willard et al., 2005). […] This finding was quantified by measuring the phosphate (Pi) release, using the ENZchek® phosphate assay kit (Invitrogen®), after incubating NHR1A with different concentrations of JAZ9. […]
GTP binding and hydrolysis by AtNHR1A protein was measured using GTP-BODIPY-FL in real-time fluorescence assays in the presence of absence of JAZ9 protein. […]

Molecule | AtNHR1A transcripts vs water-treated control (AtNHR1A [1]; Col-0 guard cells) | AtNHR1A transcript level vs water-treated control (AtNHR1A [1]; Col-0 mesophyll cells) | Stomatal response ([2]; Atnhr1a mutant) | Stomatal response ([2]; Col-0, NHR1A-OE and AtNHR1A-comp lines) | AtNHR1B expression (AtNHR1B [3]) | AtNHR1B transcripts vs water treatment (AtNHR1B [4]) | Stomatal aperture size [5] | AtNHR1A induction (AtNHR1A [6]) | binding result [7] | Reduction in phosphate release compared with AtNHR1A without JAZ9 (AtNHR1A [8]; 0.75 μM and 1 μM of JAZ9, NHR1A 1 μM pre-loaded with GTP 1 mM) [%] | Rate of GTP hydrolysis of AtNHR1A (AtNHR1A [8]; in the presence of JAZ9)
CC1=CC(=O)CC(C)(C)[C@@]1(O)/C=C/C(C)=C\C(=O)O [ABA, abscisic acid] | only a slight increase | approximately threefold | remained open | closed stomata | highly induced | decreased | reduced | twofold |  |  | 
B1 |  |  |  |  |  |  |  |  | binds | 20 | significantly decreased
